This is an account of results in patent EP2047849A1 (KTB Tumorforschungsgesellschaft mbH, priority 2007, dated 2009).

Where a chain is given by its changes, count along the chain named. A value given as a limit tells only on which side of the number the result lay.

Common to all, as to assay: 33PanQinase Activity Assay (in vitro protein kinase activity assay)
Holding throughout (format): biochemical
What all share (conditions): recombinant purified kinase, 1 µM [γ-33P]-ATP

In one assay the target is T1, PDGFR-beta (Homo sapiens, UniProt P09619).
T1 construct: made in house; host or cells: Sf9 insect cells (baculovirus)
Here is the method:
(§1) Inhibition of protein kinases by compounds was measured in proprietary protein kinase activity assay (^33PanQinase® Activity Assay) using recombinant purified protein kinases. All protein kinases were expressed in Sf9 insect cells as recombinant GST-fusion proteins or His-tagged proteins by means of the baculovirus expression system. All kinases were produced from human cDNAs. Kinases were purified by affinity chromatography using either GSH-agarose (Sigma) or Ni-NTH-agarose (Qiagen). The purity of the protein kinases was examined by SDS-PAGE/Coomassie staining. Activity was measured by determination of the incorporation of radio labelled phosphate into a substrate. The reaction cocktails for all enzymes contained 60 mM HEPES-NaOH, 10 mM Tris/HCl, pH 7.5, 20 mM NaCl, 3 mM MgCl2, 3 mM MnCl2, 3 µM Na-orthovanadate, 2 mM DTT, 4% glycerol, 1 µM [γ-^33P]-ATP (approx. 6 x 10^5 cpm per well), protein kinase , and substrate. Table 1: Protein kinases inhibited with high potency in vitro by compound PQ-012, PQ-013, PQ-014, PQ-016, PQ-041, PQ-042.

The next assay concerns the target T2, FAK (Homo sapiens, UniProt Q05397).
T2 construct: made in house; host or cells: Sf9 insect cells (baculovirus)
Here is the method: as §1

A further assay has as its target T3, FLT3 D835Y (Homo sapiens, UniProt P36888, D835Y).
T3 construct: made in house; host or cells: Sf9 insect cells (baculovirus)
T3 sequence (P36888 27-993 D835Y): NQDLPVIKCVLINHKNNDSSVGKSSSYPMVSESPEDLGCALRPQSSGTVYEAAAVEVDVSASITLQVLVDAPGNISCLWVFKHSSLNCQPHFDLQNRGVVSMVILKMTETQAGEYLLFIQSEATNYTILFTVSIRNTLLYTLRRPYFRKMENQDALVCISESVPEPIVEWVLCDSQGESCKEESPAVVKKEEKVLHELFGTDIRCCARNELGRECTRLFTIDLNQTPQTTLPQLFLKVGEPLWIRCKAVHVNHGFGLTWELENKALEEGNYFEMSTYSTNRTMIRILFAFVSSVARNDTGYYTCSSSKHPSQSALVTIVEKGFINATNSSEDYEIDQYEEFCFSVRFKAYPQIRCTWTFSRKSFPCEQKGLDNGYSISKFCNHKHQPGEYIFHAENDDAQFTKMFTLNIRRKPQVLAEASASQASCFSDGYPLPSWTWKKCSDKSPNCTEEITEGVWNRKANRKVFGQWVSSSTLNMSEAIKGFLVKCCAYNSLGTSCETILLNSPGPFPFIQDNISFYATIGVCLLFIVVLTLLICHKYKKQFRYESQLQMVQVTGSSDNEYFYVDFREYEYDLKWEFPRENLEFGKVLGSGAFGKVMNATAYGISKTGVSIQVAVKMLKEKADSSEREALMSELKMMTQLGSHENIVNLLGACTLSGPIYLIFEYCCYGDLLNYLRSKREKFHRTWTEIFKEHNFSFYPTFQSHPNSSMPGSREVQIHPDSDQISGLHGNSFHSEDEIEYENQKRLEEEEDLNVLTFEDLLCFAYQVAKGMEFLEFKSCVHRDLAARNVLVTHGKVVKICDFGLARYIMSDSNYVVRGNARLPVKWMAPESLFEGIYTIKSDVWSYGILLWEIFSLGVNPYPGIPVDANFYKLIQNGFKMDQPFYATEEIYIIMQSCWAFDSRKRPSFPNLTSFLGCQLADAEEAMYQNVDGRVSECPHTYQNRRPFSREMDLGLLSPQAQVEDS
How it is done: as §1

The target of a further assay is T4, FLT3 wt (Homo sapiens, UniProt P36888).
T4 construct: made in house; host or cells: Sf9 insect cells (baculovirus)
T4 sequence (P36888 27-993): T3 sequence (P36888 27-993 D835Y) with Y809D
Here is the method:
as §1

The target in another assay is T5, CHK2 (Homo sapiens, UniProt O96017).
T5 construct: made in house; host or cells: Sf9 insect cells (baculovirus)
Here is the method:
as §1

A further assay has as its target T6, PDGFR-alpha (Homo sapiens, UniProt P16234).
T6 construct: made in house; host or cells: Sf9 insect cells (baculovirus)
Here is the method:
as §1

T6 sequence (P16234 24-1089): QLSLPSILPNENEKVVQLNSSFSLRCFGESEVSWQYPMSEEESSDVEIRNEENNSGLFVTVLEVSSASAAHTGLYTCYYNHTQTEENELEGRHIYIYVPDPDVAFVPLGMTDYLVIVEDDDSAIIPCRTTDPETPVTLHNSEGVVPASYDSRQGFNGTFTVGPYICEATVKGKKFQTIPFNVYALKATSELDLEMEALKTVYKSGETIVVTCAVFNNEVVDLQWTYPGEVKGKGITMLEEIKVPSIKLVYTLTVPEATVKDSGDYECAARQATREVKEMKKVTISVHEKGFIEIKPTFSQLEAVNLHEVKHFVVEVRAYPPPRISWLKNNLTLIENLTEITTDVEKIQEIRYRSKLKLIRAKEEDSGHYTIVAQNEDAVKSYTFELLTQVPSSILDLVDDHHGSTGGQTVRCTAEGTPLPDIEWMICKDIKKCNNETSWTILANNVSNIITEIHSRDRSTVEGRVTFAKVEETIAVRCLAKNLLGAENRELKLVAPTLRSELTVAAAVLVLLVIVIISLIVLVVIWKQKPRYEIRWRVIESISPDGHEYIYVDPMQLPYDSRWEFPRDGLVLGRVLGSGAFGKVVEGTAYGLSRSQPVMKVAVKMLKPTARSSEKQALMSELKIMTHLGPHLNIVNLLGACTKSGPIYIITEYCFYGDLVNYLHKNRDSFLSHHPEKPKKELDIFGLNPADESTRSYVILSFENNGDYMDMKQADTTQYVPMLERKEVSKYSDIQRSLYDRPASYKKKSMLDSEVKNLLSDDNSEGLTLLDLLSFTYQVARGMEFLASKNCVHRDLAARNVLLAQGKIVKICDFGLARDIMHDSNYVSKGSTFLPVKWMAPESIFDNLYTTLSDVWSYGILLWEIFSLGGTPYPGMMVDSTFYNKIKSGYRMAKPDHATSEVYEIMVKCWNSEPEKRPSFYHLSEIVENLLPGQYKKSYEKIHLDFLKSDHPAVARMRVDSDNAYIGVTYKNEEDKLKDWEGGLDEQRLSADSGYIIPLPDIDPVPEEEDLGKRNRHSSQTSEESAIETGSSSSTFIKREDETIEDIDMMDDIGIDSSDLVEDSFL
T1 sequence (P09619 33-1106): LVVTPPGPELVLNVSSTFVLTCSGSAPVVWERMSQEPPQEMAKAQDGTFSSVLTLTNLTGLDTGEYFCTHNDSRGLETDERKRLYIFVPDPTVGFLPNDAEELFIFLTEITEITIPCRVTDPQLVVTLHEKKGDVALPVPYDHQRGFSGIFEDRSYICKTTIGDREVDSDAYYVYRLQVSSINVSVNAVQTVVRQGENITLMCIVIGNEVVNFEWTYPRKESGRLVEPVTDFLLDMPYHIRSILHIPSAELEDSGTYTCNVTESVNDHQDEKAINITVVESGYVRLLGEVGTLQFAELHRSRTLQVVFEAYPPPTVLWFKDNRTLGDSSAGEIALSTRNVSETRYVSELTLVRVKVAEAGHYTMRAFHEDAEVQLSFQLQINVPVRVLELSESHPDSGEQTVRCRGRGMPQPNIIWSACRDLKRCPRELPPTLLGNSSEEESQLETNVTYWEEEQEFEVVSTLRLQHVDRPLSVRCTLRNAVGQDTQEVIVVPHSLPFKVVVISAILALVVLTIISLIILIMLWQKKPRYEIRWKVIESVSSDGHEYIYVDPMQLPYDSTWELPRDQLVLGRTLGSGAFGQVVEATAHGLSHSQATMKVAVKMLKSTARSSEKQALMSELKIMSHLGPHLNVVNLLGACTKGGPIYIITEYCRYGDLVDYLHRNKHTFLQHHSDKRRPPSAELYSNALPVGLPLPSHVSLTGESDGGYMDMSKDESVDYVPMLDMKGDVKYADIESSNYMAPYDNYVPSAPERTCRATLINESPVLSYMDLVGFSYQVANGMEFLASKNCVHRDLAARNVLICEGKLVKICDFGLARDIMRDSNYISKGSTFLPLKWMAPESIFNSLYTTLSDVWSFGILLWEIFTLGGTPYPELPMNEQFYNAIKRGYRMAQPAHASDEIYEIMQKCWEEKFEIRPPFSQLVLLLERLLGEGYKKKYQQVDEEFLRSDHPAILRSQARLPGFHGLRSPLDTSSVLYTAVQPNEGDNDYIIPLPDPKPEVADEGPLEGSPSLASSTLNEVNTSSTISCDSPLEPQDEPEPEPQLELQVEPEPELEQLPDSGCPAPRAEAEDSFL
T2 sequence (Q05397 whole entry): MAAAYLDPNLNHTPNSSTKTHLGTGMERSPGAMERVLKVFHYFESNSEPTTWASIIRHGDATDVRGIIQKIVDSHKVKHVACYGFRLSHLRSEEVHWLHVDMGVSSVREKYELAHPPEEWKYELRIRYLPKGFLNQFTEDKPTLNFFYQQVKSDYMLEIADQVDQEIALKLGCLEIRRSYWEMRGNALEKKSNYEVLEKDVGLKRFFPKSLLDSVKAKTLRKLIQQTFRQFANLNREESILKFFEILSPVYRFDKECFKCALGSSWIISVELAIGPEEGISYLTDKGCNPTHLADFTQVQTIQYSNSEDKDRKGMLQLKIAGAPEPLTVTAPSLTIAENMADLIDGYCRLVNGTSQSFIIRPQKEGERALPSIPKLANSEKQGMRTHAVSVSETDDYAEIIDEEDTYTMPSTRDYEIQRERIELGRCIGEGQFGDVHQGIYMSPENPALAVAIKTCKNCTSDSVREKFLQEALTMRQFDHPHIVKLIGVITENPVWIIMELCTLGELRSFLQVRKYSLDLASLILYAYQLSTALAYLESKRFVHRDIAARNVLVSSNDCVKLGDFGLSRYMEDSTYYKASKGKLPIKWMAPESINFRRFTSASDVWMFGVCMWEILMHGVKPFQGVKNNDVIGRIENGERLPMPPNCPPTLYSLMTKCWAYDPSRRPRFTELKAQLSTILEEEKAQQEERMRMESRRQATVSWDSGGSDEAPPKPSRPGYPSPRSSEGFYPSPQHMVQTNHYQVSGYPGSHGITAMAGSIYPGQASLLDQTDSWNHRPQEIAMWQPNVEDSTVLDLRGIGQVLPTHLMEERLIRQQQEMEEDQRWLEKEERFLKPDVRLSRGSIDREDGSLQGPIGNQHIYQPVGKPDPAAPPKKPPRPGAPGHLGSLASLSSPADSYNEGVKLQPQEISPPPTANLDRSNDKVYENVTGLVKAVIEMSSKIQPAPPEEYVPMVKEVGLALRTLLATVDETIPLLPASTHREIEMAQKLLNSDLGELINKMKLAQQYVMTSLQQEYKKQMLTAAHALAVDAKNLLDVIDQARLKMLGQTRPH
T5 sequence (O96017 whole entry): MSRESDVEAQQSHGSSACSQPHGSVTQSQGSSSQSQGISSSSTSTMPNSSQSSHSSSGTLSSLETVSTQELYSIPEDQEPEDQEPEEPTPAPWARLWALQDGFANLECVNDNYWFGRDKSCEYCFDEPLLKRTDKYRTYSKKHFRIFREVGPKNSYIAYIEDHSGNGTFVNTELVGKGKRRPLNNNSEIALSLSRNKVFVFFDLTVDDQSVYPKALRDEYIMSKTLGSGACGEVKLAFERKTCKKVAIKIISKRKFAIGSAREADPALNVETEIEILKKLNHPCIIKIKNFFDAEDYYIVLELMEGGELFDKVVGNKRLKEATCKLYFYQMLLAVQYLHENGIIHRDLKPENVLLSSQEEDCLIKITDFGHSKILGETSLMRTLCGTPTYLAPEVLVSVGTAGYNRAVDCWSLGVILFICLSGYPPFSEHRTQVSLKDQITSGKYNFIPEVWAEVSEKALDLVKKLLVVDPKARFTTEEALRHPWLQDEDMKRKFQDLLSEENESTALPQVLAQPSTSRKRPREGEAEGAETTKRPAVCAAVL

For the compound `COc1ccc2c(c1)c1c3c(c4c5ccccc5n(C)c4c1n2CCC#N)C(=O)NC3=O` [PQ-014, 13-(2-Cyanoethyl)-6,7,12,13-tetrahydro-3-methoxy-12-methyl-5,7 dioxo-5H-indolo[2,3-a] pyrrolo [3,4-c]-carbazole], the IC50 (commonly the concentration that gives 50% inhibition) on PDGFR-beta is 130 nM; on FAK it was 1200 nM; at FLT3 D835Y, 3.5 nM; at FLT3 wt, 4.6 nM; on CHK2, 2100 nM; at PDGFR-alpha, 110 nM.

In the case of `Cn1c2ccccc2c2c3c(c4c5ccccc5[nH]c4c21)C(=O)NC3=O` [PQ-042, 6,7,12,13-Tetrahydro-12-methyl-5,7 dioxo-5H-indolo [2,3-a] pyrrolo [3,4-c]-carbazole], the IC50 at PDGFR-beta is > 10000 nM; at FAK it was > 10000 nM; at FLT3 D835Y, 68 nM; on FLT3 wt, 380 nM; on CHK2, > 10000 nM; at PDGFR-alpha it was > 10000 nM.

Turning to `CN(C)CC(O)Cn1c2ccc(O)cc2c2c3c(c4c5cc(O)ccc5n(C)c4c21)C(=O)NC3=O` (racemic), the IC50 at PDGFR-beta came out at 700 nM; on FAK, 1000 nM; at FLT3 D835Y, 64 nM; at FLT3 wt, 110 nM; on CHK2 it was 22000 nM; at PDGFR-alpha it was 2000 nM.

In the case of `CN(C)CCCn1c2ccc(O)cc2c2c3c(c4c5cc(O)ccc5n(C)c4c21)C(=O)NC3=O` [PQ-012, 12-(3-Dimethylaminopropyl)-6,7,12,13-tetrahydro-3,9-dihydroxy-12-methyl-5,7 dioxo-5H-indolo[2,3-a] pyrrolo [3,4-c]-carbazole], the IC50 at PDGFR-beta was < 3 nM; at FAK, 14 nM; on FLT3 D835Y, < 3 nM; on FLT3 wt, < 3 nM; at CHK2, 23 nM; on PDGFR-alpha, < 3 nM.

As to `NC(=O)CCn1c2ccccc2c2c3c(c4c5ccccc5[nH]c4c21)C(=O)NC3=O` [PQ-041, 12-(2-Carbamidoethyl)-6,7,12,13-tetrahydro-5,1 dioxo-5H-indolo[2,3-a] pyrrolo [3,4-c]-carbazole], the IC50 at PDGFR-beta worked out at 150 nM; at FAK, 2400 nM; on FLT3 D835Y, 3.9 nM; at FLT3 wt it was 5.6 nM; on CHK2 it was 740 nM; at PDGFR-alpha, 130 nM.
